From US6525017B1, “Using glutathiane to protect neurons from injury” (The Children's Medical Center Corporation, priority 1989, dated 2003)

How the values were obtained:
Assay type in all cases: cell-based
NMDA receptor [1] = experiment: Whole-cell patch-clamp NMDA responses in cultured rat cortical neurons
Experimental: The effects of reduction and oxidation on the NMDA response were further examined in cultured mammalian central neurons with the use of patch electrodes. Experiments were performed on neurons in primary cultures of CD rat neocortex derived from embryonic day 16 fetuses and plated onto glass coverslips coated with collagen and poly-L-lysine. The growth medium consisted of a v/v mixture of 80% DMEM (Sigma D5530), 10% F-12 (Sigma), 10% heat-inactivated, iron-supplemented serum (Hyclone), with 25 mM HEPES, 24 U/ml penicillin, and 24 μg/ml streptomycin, supplemented to 2 mM glutamine. Recordings were performed on 3- to 13-week-old cultures, and neurons studied ranged from 12 to 18 μm in diameter. The extracellular solution for the physiological experiments contained 137 mM NaCl, 1 mM NaHCO3, 0.34 mM NaHPO4, 5.36 mM KCl, 0.44 mM KH2PO4, 2.5 mM CaCl2, 5 mM HEPES-NaOH, 22.2 mM dextrose, 0.001% (v/v) phenol red, adjusted to pH 7.2 with 0.3 N NaOH (no added magnesium, except where noted). Tetrodotoxin (TTX) (1 μM) was routinely added to reduce synaptic activity. The intracellular (pipette) solution contained 120 mM CsCl, 20 mM TEA-Cl, 2 mM MgCl2, 1 mM CaCl2, 1.5-2.25 mM EGTA, and 10 mM HEPES-NAOH, adjusted to pH 7.2 with concentrated TEA-OH. Electrophysiological measurements were performed at 33° C.-35° C. with patch electrodes (4-8 MΩ), essentially as described in Lipton et al. J. Physiol 385:361, 1987. Lipton et al. 1987 includes the following disclosure of electrophysiological recordings by patch clamp from solitary neurons:
“. . . patch-clamp recordings were made . . . following the methods of Hamill et al. (1981) using an EPC-7 amplifier (List Electronic, Darmstadt, F.R.G.). Patch electrodes had resistances of 3-5 MΩ when filled with Na^+ or K^+ saline. Patch electrodes were used to record whole-cell currents under voltage clamp as well as single-channel currents from patches of membrane excised from the cell. The indifferent electrode was a Ag-AgCl wire connected to the culture dish via an agarose bridge. Holding and command potentials (VH and Vc, respectively (were generated by a digital-to-analog converter (Cheshire Data, Hamden, Conn., U.S.A.) interfaced with a PDP 11/23 or 11/73 computer (Digital Equipment Corp., Maynard, Mass., U.S.A.). Data collection was also controlled by the computer; data were sampled and digitized with a 12-bit, 125 kHz analog-to-digital converter (Data Translation, Marlboro, Mass., U.S.A., Model DT2782DMA) and viewed on a Hewlett-Packard digital display (Model 1345A). The sampling rate was set at 10 μs to 50 ms depending on the level of analysis. Using the amplifier test circuit, the digitized data were accurate to within 1%. The signals were low-pass filtered at a setting appropriate to the sampling frequency (Ithaco, Ithaca, N.Y., U.S.A., Model 4302 with a Bessel frequency cut-off characteristic of 48 dB/octave). Leakage currents and liquid junction potentials were corrected as described in Fenwick, Marty & Neher [J. Physiol. 331:577-597] (1982a). Using the EPC-7 circuit, analog compensation of the series resistance was applied. This ensured a relatively small error due to the voltage drop across the series resistance (less than or equal to that calculated by Marty & Neher, 1985 [J. Physiol. 367:117-141]). Data were stored on a 30 megabyte Winchester disk (Data Systems Design, San Jose, Calif., U.S.A., Model 880). […]

NMDA receptor [2] = experiment: Whole-cell NMDA responses in isolated rat retinal ganglion cells
Experimental: (§1) The third central neuronal preparation in which the effects of oxidation and reduction on NMDA responses were tested was the isolated rat retinal ganglion cell. Postnatal retinal ganglion cells were identified and cultured as described in Lipton et al., supra. Physiological solutions and experimental protocol were the same as described for cortical neurons (Example 2), except that TTX was excluded from the extracellular fluid, since whole-cell recordings were performed on neurons that were solitary and had no apparent connections to other cells and no spontaneous action potentials.
These cells have well-characterized, albeit small, NMDA responses. Treatment with 2 mM DTT (1-3 min) produced potentiation of the response elicited by 200 μM NMDA and 1 μM glycine (250%±130% of control; range, 220%-320%). […] Glycine (1 μM) potentiation of NMDA (200 μM) responses occurred in both the reduced and the oxidized states. […] The effects of reduction and oxidation could be repeated in alternating fashion in these cells for as long as the recording remained stable.

non-NMDA receptors = experiment: Whole-cell currents elicited by non-NMDA agonists in rat retinal ganglion cells; conditions: 125 μM kainate, 60 μM AMPA, 30 μM quisqualate
Experimental: as §1
In the retinal ganglion cells, we further tested the effects of DTT and DTNB on responses elicited by glutamate analogs acting at non-NMDA receptors to confirm our previous observations in the chick retina, i.e., a lack of effect of reduction and oxidation on responses induced by agonists acting at non-NMDA receptors.

## O[C@@H](CS)[C@@H](O)CS [DTT, dithothreitol]
NMDA receptor [1]; 10-100 μM NMDA + 1 μM glycine, 1-5 min treatment with 0.5-2.0 mM DTT, mean ± spread
  voltage-clamped NMDA response, % of control (potentiation): 250%±140%
NMDA receptor [1]; 10-100 μM NMDA + 1 μM glycine, 1-5 min treatment with 0.5-2.0 mM DTT, range
  voltage-clamped NMDA response, % of control, range: 220%-330%
NMDA receptor [1]; after DTNB oxidation
  NMDA response on reapplication of DTT after oxidation: always restored the NMDA response to greater than control levels
NMDA receptor [2]; 200 μM NMDA + 1 μM glycine, 2 mM DTT 1-3 min, mean ± spread
  NMDA response, % of control (potentiation): 250%±130%
NMDA receptor [2]; 200 μM NMDA + 1 μM glycine, 2 mM DTT 1-3 min, range
  NMDA response, % of control, range: 220%-320%
non-NMDA receptors; 1 mM DTT
  currents elicited by kainate, AMPA or quisqualate after reduction: no substantial effect

## O=C(O)c1cc(SSc2ccc([N+](=O)[O-])c(C(=O)O)c2)ccc1[N+](=O)[O-] [DTNB, 5′-5′-dithiobis-2-nitrobenzoic acid]
NMDA receptor [1]; 1-3 min treatment with 0.1-1.0 mM DTNB, mean ± spread
  decrease of NMDA response: 22.9%±12.9%
NMDA receptor [1]; 1-3 min treatment with 0.1-1.0 mM DTNB, range
  decrease of NMDA response, range: 0%-39.5%
NMDA receptor [2]; 0.1-0.2 mM DTNB, mean ± spread
  decrement of the native NMDA response: 49.4%±9.4%
NMDA receptor [2]; 0.1-0.2 mM DTNB, range
  decrement of the native NMDA response, range: 37%-60%
non-NMDA receptors; 200 μM DTNB
  responses elicited by kainate, AMPA or quisqualate after oxidation: did not affect
